Where two headings read alike, the source gives them in different places. Marks after values point to notes of the source that are not given here. Where only a bound is given, the exact number is not on record here.

The subject of series [1] is LoVo cells (human colon carcinoma). Briefly: Antiproliferative activity, 72 h treatment, SRB assay, LoVo. It is filed as cell-based. The following applies: 72 h. treatment; read-out: Antiproliferative activity (IC50 ± S.D., μM) LoVo. The text has this:
(§1) LoVo and LoVo/Dx (line obtained by prolonged exposure to doxorubicin and characterised by overerexpression of P-glycoprotein, which confers resistance to doxorubicin): maintained in HAM-F12 medium+10% FCS.
On the technique in general: Sulforhodamine B stains cellular protein and so reports cell mass.

The subject of series [2] is LoVo/Dx cells (doxorubicin-resistant human colon carcinoma, P-glycoprotein overexpression). The experiment in a line: Antiproliferative activity, 72 h treatment, SRB assay, LoVo/Dx. It is filed as cell-based. The note with it: 72 h. treatment; read-out: Antiproliferative activity (IC50 ± S.D., μM) LoVo/Dx.
Description: as §1

The subject of series [3] is HCT116 cells (human colon carcinoma). The experiment in a line: Antiproliferative activity, 72 h treatment, SRB assay, HCT116. It is filed as cell-based. The note with it: 72 h. treatment; read-out: Antiproliferative activity (IC50 ± S.D., μM) HCT116. How it is done: HCT116 maintained in RPMI 1640 medium+10% FCS.
(§2) The cells (HT29 and HT29/Mit:. 40,000 cells/ml, LoVo, LoVo/Dx and HCT116: 50,000 cells/ml) are seeded in 100 μl of the respective culture media in 96-well plates. 24 hours after seeding, an aliquot (10 μl) of drug at the various concentrations is added. In the samples in which the effect of the combination of two compounds is to be tested the inhibitor is added immediately before the cytotoxic. For each dose or combination of doses/drugs the effect of the treatment is determined in 4-8 replicates.
(§3) After 72 hours of treatment the antiproliferative effect is evaluated using the sulforhodamine B (SRB) assay: the cells are fixed by adding 25 μl of 50% TCA to each well and left for 1 hour at 4° C. After washing them with water and allowing them to dry, 100 μl of 0.4% SRB in 1% acetic acid are added and left for 30 minutes at room temperature. After 4 washes in 1% acetic acid, they are left to dry, then the dye fixed by the proteins is dissolved under basic conditions with 100 μl 10 mM cold Tris and the solution is read using a spectrophotometer at 550 nm.
(§4) Percentage cell growth is calculated as the optical density of treated samples compared to the optical density of controls (untreated cells).
(§5) The Combination Index (C.I.) was determined according to Kern's method, 1988 (who continued from Drewinko B, 1976) (Kern D. H., Cancer Res. 48, 117-121, 1988; Drewinko B., Cancer Biochem. Biophys. 1, 187-195, 1976) by means of the following formula: […], where SFa and SFb are the fractions of cells surviving to treatment with compound a and b, respectively; SFab is the fraction surviving to the combination of compounds a and b.

Series [4] concerns A2780 cells (human ovarian carcinoma). Briefly: Antiproliferative activity, 48 h treatment, ATPlite luminescence assay, A2780. The series is classed as cell-based. The following applies: 48 h. treatment; read-out: Antiproliferative activity (IC50 ± S.D., μM) A2780. The procedure: (§6) 24 hours after seeding, an aliquot (10 μl) of the drug at the various concentrations is added (for each concentration there are 3 replicates). After 48 hours of treatment the antiproliferative effect is evaluated with a luminescence assay (Perkin Elmer Life Sciences ATPlite):
(§7) 50 μl of a lysis solution are added to each well followed by an equal volume of a solution containing luciferase and D-luciferin. The ATP present in all the metabolically active cells brings about the transformation reaction of D-luciferin, catalysed by luciferase, to produce a luminescent signal as described in the following scheme: ATP+D-luciferin+O2→Oxyluciferin+AMP+PPi+CO2+Light
(§8) The luminescence produced (expressed in counts per second, CPS) is measured by means of a microplate scintillation analyzer (Perkin Elmer Life Sciences Top Count).
(§9) Percentage inhibition of luminescence in the treated cells compared to the control is calculated; concentration-response curves are then analysed using Grafit v.5.0.
(ATP-based viability assays read luminescence as a measure of living cells.)

Series [5] concerns SK-N-BE(2) cells (human neuroblastoma). Briefly: Antiproliferative activity, 48 h treatment, ATPlite luminescence assay, SK-N-BE(2). The following applies: 48 h. treatment; read-out: Antiproliferative activity (IC50 ± S.D., μM) SK-N-BE(2). The series is classed as cell-based. The procedure: (§10) SH-SY5Y and SK-N-BE(2): maintained in HAM-F12 medium+10% FCS.
as §6, §7, §8, §9

The subject of series [6] is HT29 cells (human colon carcinoma). Briefly: Antiproliferative activity, 72 h treatment, SRB assay, HT29. The series is classed as cell-based. The following applies: 72 h. treatment, read-out: Antiproliferative activity (IC50 ± S.D., μM) HT-29.
For series [7], the system named is SH-SY5Y cells (human neuroblastoma). The experiment in a line: Antiproliferative activity, 48 h treatment, ATPlite luminescence assay, SH-SY5Y. The series is classed as cell-based. The following applies: 48 h. treatment; read-out: Antiproliferative activity (IC50 ± S.D., μM) SHSY-5Y. How it is done: as §10, §6, §7, §8, §9
Series [8] has as its system HepG2 cells (human hepatic carcinoma). The experiment in a line: Antiproliferative activity, 48 h treatment, ATPlite luminescence assay, HepG2. The series is classed as cell-based. The procedure: HepG2: maintained in EMEM medium+10% FCS.
as §6, §7, §8, §9

In series [9] the test system is HT29/Mit cells (mitoxantrone-resistant human colon carcinoma, BCRP overexpression). The experiment in a line: Antiproliferative activity, 72 h treatment, SRB assay, HT29/Mit. The note with it: Homo sapiens, HT-29, 72 h. The procedure:
HT29 and HT29/Mit (line obtained by prolonged exposure to mitoxantrone, and characterised by overerexpression of BCRP, which confers cross resistance to topotecan, irinotecan and to its metabolite SN38): maintained in McCoy 5A medium+10% FCS.
as §2, §3, §4, §5

Series [10] relates to HT29/Mit human colon carcinoma xenografts. The experiment in a line: HT29/Mit human colon carcinoma xenografts, antitumor activity. The series is classed as in vivo, athymic Swiss nude mice. The note with it: HT29/Mit xenograft, p.o.; topotecan 15 mg/Kg every 4 days for 3 administrations; compound of example 2 30 mg/kg; alone or combined. How it is done: Female athymic Swiss nude mice (8-10 weeks old) (Charles River, Calco, Italy) were used for the experiments. The animals were maintained at constant temperature and humidity, and were allowed to eat and drink freely. The experimental protocol was approved by the Ethics Committee for Animal Experimentation of the Istituto Nazionale Tumori of Milan.
The antitumour effectiveness of the compounds of the invention under discussion was tested on athymic mouse models implanted with HT29 and/or HT29/Mit tumour cells: this latter variety is highly resistant to topotecan treatment. The tumour cells were implanted in vivo via subcutaneous injection of 10^7 cells taken from in vitro cultures. Randomized groups of five mice with bilateral subcutaneous tumours were used for the experiment.
Topotecan or other known antitumour agents (dissolved in distilled water or an appropriate solvent) and the compounds of the invention (dissolved in Cremophor EL:ethanol:saline solution in the proportions 5:5:90, or in an appropriate solvent) were administered orally from the third day, alone or in combination, in agreement with a treatment scheme selected in an appropriate manner depending on the type of compound to be studied.
The weight (or volume) of the tumour in treated mice compared to controls is represented graphically on the y-axis against time (x-axis).
(In general: A xenograft is tissue or cells of one species grown in another, often human tumour cells in immunodeficient mice.)

For series [11], the system named is H460 primary tumor. The experiment in a line: H460 human non-small cell lung carcinoma xenograft, antitumor activity on the primary tumor. The note with it: H460 s.c., p.o. for 8 weeks, topotecan 1 mg/kg, compound of example 2 30 mg/kg. It is filed as in vivo, athymic Swiss nude mice. The procedure: Female athymic Swiss nude mice (8-10 weeks old) (Charles River, Calco, Italy) were used for the experiments, as described above.
H460 cells were injected i.p. into nude mice, adapted to grow as ascitis and maintained in vivo by i.p. passages (5×10^6 cells/mouse in 0.5 ml PBS) (Pratesi G., Br. J. Cancer 63, 71-74, 1991). Briefly, cells were collected from the donor mice about 7 days after inoculum. After washing, cell number and viability were determined by trypan blue exclusion. Such procedure allowed to obtain a single cell suspension easily available for s.c or i.v. injection.
(§11) The effects of the compounds of the invention and/or topotecan on the growth of primary tumors and spontaneous lung metastasis were tested in mice inoculated s.c. in the right flank with H460 ascitic tumor cells (2×10^6/mouse). Each control or drug-treated group included 9-11 mice. The s.c. tumor growth was followed by biweekly measurements of tumor diameters with a Vernier caliper. Drug treatment was delivered orally, for 8 weeks, from day 1. Topotecan was delivered at the dose of 1 mg/kg and compounds of the invention were delivered at the dose of 30 mg/kg; in the combination group the compounds of the invention were delivered almost 1 hour after topotecan treatment. Control mice were solvent-treated orally in parallel with drug treatments.
(§12) Drug efficacy was assessed as mean percentage tumor weight inhibition in drug-treated versus control mice expressed as tumor weight inhibition % (TWI %)=100−(mean tumor weight treated/mean tumor weight control×100), evaluated during and after drug treatment. Drug tolerability was assessed in tumor-bearing mice as either lethal toxicity, i.e., any death in treated mice occurring before any control death, or percentage body weight loss (BWL %)=100−(body weight on day x/body weight on day 1×100), where x represents a day after or during the treatment period.

The nature of series [12]: Drug tolerability in H460 tumor-bearing mice (lethal toxicity). The following applies: topotecan 1 mg/kg, compound of example 2 30 mg/kg p.o., 8 weeks. How it is done: as §11, §12
Series [13] deals with H460 spontaneous lung metastasis. Briefly: H460 xenograft, spontaneous lung metastasis (antimetastatic activity). The following applies: topotecan 1 mg/kg, compound of example 2 30 mg/kg p.o. It is filed as in vivo, athymic Swiss nude mice. The procedure:
At day 63, tumor-bearing mice were sacrificed by cervical dislocation and their lungs were removed and weighed. Lung lobes were spliced between two glass slides and the metastatic nodules were macroscopically counted against a bright light (Corti C, J. Cancer Res. Clin. Oncol. 122, 154-60, 1996). […] Reading of metastasis was performed by two independent observers, unaware of the experimental group, with an interobserver reproducibility >95%. The metastatic nature of these areas was confirmed by histological analysis of digital images obtained by Image Analysis System software (Delta System, Rome, Italy).

The mark [14] stands for this setting: read-out: Antiproliferative activity (IC50 ± S.D., μM) HT-29/Mit.
[15] abbreviates: Homo sapiens, HepG2, read-out: Antiproliferative activity (IC50 ± S.D., μM) HepG2.

As for `N.N.[Cl][Pt][Cl]` [Cisplatin, reference compound], the IC50 in series [1] came out at 0.7 µM; in series [2] it was 0.8 µM; in series [3], 5.4 µM; in series [4], 8.1 ± 2.1 µM; in [5], 10.1 ± 3.5 µM; in [6], 6.8 µM. Also, the IC50 is 7.3 ± 3.3 µM in [7] and above 25 µM in series [8] (read-out: Antiproliferative activity (IC50 ± S.D., μM) HepG2).

Turning to `CO/C(=C\C=C\c1cc2cc(Cl)c(Cl)cc2[nH]1)C(=O)NC1CC(C)(C)N(C)C(C)(C)C1` [Example 1], the IC50 in series [9] (setting [14]) stood at 1 µM; in series [6] (Homo sapiens, HT-29), 3.3 ± 0.4 µM; in series [8] (setting [15]), 1.1 ± 0.1 µM.

`CCOc1cc(C(=O)NC2CC(C)(C)NC(C)(C)C2)ccc1-c1nc2cc(Cl)c(Cl)cc2[nH]1` [Example 3]: the IC50 in [9] (setting [14]) came out at 0.27 µM; in series [6] (Homo sapiens, HT-29) it was 0.56 ± 0.26 µM; in series [8] (setting [15]) it was 0.71 ± 0.01 µM.

On to `CCOc1cc(C(=O)NC2CCNCC2)ccc1-c1cc2cc(Cl)c(Cl)cc2[nH]1` [Example 4], for which the IC50 came to 3.6 µM in [9] (setting [14]) and 4.7 µM in series [6] (Homo sapiens, HT-29).

As to `CCOc1cc(C(=O)NC2CCN(C)CC2)ccc1-c1cc2cc(Cl)c(Cl)cc2[nH]1` [Example 5], the IC50 in series [9] (setting [14]) amounted to 2.3 µM; in series [6] (Homo sapiens, HT-29), 3.8 µM.

On to `COc1cc(C(=O)N(C)C2CC(C)(C)NC(C)(C)C2)ccc1-c1cc2cc(Cl)c(Cl)cc2[nH]1` [Example 6], for which the IC50 was determined as 3.3 µM in series [9] (setting [14]); 4.7 µM in [6] (Homo sapiens, HT-29); 0.92 ± 0.01 µM in series [8] (setting [15]).

Turning to `CC[C@@]1(O)C(=O)OCc2c1cc1n(c2=O)Cc2cc3c(CN(C)C)c(O)ccc3nc2-1` [Topotecan, reference compound], the “Inhibition of tumour growth” value in series [10] is listed as 30-40%. Moreover, the IC50 was above 20 µM in series [9] (read-out: IC50 for topotecan alone (FIG. 1 co-treatment experiment)) and 0.07 ± 0.01 µM in [6] (Homo sapiens, HT-29). Further, the “LCK (Log10 Cell Kill)” value in [11] is listed as 0.5. Besides, the “Max TWI (day 56) (Maximal Tumor weight inhibition achieved)” value in [11] was 57* %; in series [11] (listed as topotecan), 57%. The “Tox/Tot (any death in treated mice occurring before any control mice)” value in series [12] was 0/10. The “Lung No. Metastasis (range)” value in series [13] (day 63) is recorded as 11 (4-23); in [13] (day 63, listed as topotecan), “reduced”. The “Lung Weight (mg) (mean ± S.D.)” value in [13] (day 63) is given as 169 ± 16 mg. Further, the “Lung metastasis Inhibition %” value in [13] (inhibition of number of metastasis vs controls) is recorded as 58%.

Source of the values: US20070299084A1, “Indole Derivatives Useful for Treating Resistance to Antitumor Agents” (NIKEM RESE S.R.L., priority 2004, published 2007).
